Entries after “also recorded” stand apart in the source; their conditions may differ.
Columns and labels:
HeLa cells [1] = test: Anticancer potency, 72 hour Sulforhodamine B assay; assay type: cell-based, human; settings: for cell death: HeLa cells, 100 μM, 72 hours; for IC50: Homo sapiens, HeLa, 72 h, read-out: Anticancer potency, 72 hour IC50
WT-MEF = test: Growth inhibition in non-cancerous immortalized cell line, SRB assay; assay type: cell-based; settings: 100 μM, 72 hours, preliminary
LDH-A [2] = target: T1, LDH-A (Homo sapiens, UniProt P00338); test: Enzyme kinetics, NADH-competition, mixed-model inhibition fit; assay type: biochemical
HeLa cells [3] = test: Lactate production inhibition in HeLa cells quantified by GC-MS; assay type: cell-based, human; settings: 8 hours; for effect on lactate production: 50-200 μM
Stability [4] = assay type: in vitro ADME; settings: RPMI 1640 growth media, 30 min at 37 °C, 100 μM
Stability [5] = assay type: in vitro ADME, human; settings: 30 min at 37 °C, 100 μM
HeLa cells [6] = test: Intracellular concentration / cellular uptake by LC-MS; assay type: cell-based, human; settings: 500 μM, 30 minutes
[7] = cited from earlier work
LDH-A [8] = settings: read-out: LDH-A IC50 reported in the literature; cited from earlier work
LDH-A [9] = target: T1, LDH-A; test: Enzyme inhibition of purified human LDH-A; assay type: biochemical

Compound	cell death (HeLa cells [1]) [%]	IC50 (HeLa cells [1]) [µM]	cell death (WT-MEF)	Ki (LDH-A [2]) [µM]	stability / cleavage in culture media (Stability [4])	cleavage in HeLa cell lysate (Stability [5])	cellular uptake in HeLa cells (HeLa cells [6]; LC-MS)	effect on lactate production (HeLa cells [3])	other results
O=C(O)c1cc2c(C(F)(F)F)cc(-c3ccccc3)cc2n1O [Compound 1, 1-Hydroxy-6-phenyl-4-(trifluoromethyl)-1H-indol-2-carboxylic acid]	100	43.8	less than 20%	10.8					lactate production relative to vehicle (HeLa cells [3]; 100 μM): 70%
COC(=O)c1cc2c(C(F)(F)F)cc(-c3ccccc3)cc2n1O [Compound 2, methyl 1-hydroxy-6-phenyl-4-(trifluoromethyl)-1H-indol-2-carboxylate]	100	33.4	approximately 70%		not appreciably cleaved	not appreciably cleaved			concentration in HeLa cell lysate solution relative to free acid 1 (HeLa cells [6]; LC-MS): ~ 4 fold; cleavage of methyl ester following cellular incubation (HeLa cells [6]; HeLa cells): No cleavage; lactate production relative to vehicle (HeLa cells [3]; 200 μM): ~ 20%
Cc1nc2ccc(NC(=O)CCNC(=O)CCCc3ccc(CC(C(=O)O)C(=O)O)cc3)cc2s1 [Compound 3, 2-(4-(4-((3-((2-methylbenzo[d]thiazol-6-yl)amino)-3-oxopropyl)amino)-4-oxobutyl)benzyl)malonic acid, reference compound]		> 500		0.23			could not be detected in lysate	did not show any effect	activity in cell-based assays (literature) [7]: inactive; IC50 (LDH-A [8]): 0.5 µM; IC50 (LDH-A [9]): 1 ± 0.2 µM
COC(=O)C(Cc1ccc(CCCC(=O)NCCC(=O)Nc2ccc3nc(C)sc3c2)cc1)C(=O)OC [Compound 4, dimethyl 2-(4-(4-((3-((2-methylbenzo[d]thiazol-6-yl)amino)-3-oxopropyl)amino)-4-oxobutyl)benzyl)malonate, reference compound]		75.4			stable; also recorded: not appreciably cleaved	substantially cleaved to compound 5	efficient cell uptake	significant reduction	LDH-A (IC50) [NADH] (LDH-A [9]; NADH-competition assay: 1440 μM sodium pyruvate, 40 μM NADH, mean ± SD): lack of inhibitory potency; monohydrolysis to monoester 5 in HeLa cell lysate (Stability [5]): ~ 50%
COC(=O)C(Cc1ccc(CCCC(=O)NCCC(=O)Nc2ccc3nc(C)sc3c2)cc1)C(=O)O (stereo not drawn) [Compound 5, 3-Methoxy-2-(4-(4-((3-((2-methylbenzo[d]thiazol-6-yl)amino)-3-oxopropyl)amino)-4-oxobutyl)benzyl)-3-oxopropanoic acid]							no direct cell uptake	failed to result in any substantial reduction	cell death in HeLa cells (HeLa cells [1]; 72 hour treatment, up to 200 μM): No substantial cell death
